Publication doi:10.1101/2025.06.03.657755v1 (biorxiv, 2025)

Target: SINV nsP2 (Sindbis virus, UniProt P03317)
Sequence (P03317 541-1347): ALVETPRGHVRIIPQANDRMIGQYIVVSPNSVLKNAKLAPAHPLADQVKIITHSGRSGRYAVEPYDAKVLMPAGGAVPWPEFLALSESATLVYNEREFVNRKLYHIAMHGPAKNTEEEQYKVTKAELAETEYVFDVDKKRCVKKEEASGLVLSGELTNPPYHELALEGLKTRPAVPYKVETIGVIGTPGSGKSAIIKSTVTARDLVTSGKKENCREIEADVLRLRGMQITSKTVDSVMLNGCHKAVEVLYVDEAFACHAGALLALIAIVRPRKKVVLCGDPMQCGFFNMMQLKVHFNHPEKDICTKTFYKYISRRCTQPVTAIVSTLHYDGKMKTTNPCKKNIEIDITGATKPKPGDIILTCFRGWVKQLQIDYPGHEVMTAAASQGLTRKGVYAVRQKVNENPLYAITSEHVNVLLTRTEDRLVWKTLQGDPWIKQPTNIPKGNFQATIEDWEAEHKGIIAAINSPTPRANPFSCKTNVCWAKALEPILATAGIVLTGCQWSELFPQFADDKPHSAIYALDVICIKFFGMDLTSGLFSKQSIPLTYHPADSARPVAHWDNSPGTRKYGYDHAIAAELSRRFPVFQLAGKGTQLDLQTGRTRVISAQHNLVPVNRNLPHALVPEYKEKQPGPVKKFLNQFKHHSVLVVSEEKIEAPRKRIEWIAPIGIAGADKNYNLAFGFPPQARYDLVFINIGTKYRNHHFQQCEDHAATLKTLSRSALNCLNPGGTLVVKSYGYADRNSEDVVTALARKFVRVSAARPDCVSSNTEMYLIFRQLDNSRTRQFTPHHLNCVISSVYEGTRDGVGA

Q: For `Nc1ncnc2c1ncn2[C@@H]1O[C@H](COP(=O)(O)OP(=O)(O)OP(=O)(O)O)[C@@H](O)[C@H]1O` [ATP], which Km is on record?
A: Its Km is “these additions increase the ATPase Km”.
